Ends that are not written are not given here.
How the values were obtained:
[1] = test system: sheep erythrocytes; test: Haemolytic activity; assay type: cell-based; settings: for haemolysis of sheep erythrocytes: 1 h; for Haemolytic activity (Minus PBS/average positive*100): sheep erythrocytes
Description: (§1) Fresh human red blood cells (RBC) (Cambridge Bioscience, UK) and defibrinated sheep erythrocytes (Oxoid Ltd. Hampshire, UK) were washed 3 times with PBS, centrifuged for 5 min at 500 rpm between each wash and resuspended to 4% (v/v) in PBS. […] The percentage of haemolysis was calculated according to the equation: (A450 peptide solution − A450 PBS)/ (A450 0.1% Triton X-100 − A450 PBS) × 100. The therapeutic index (T.I.) was calculated as the ratio of the minimum haemolytic concentration ((MHC)- causing 5% haemolysis to human erythrocytes) to the minimum inhibitory concentration (MICGM+) [46]. The MICGM+ was the minimum inhibitory concentration of the peptide against Gram-positive bacterial strains after the geometric mean was calculated.

[2] = test system: S. aureus strains; assay type: cell-based, Staphylococcus aureus
[3] = test system: drug resistant A. baumannii isolates; assay type: cell-based, Acinetobacter baumannii
Description: MICs against a range of clinically important Gram-positive and Gram-negative bacteria strains including methicillin-sensitive Staphylococcus aureus (MSSA) RN4220 epidemic methicillin-resistant S. aureus-15 (EMRSA-15), methicillin-resistant S. aureus USA300 (MRSA USA300), Bacillus cereus, Enterococcus faecalis JH2–2, Escherichia coli K12, Salmonella enterica serovar Typhimurium SL1344, P. aeruginosa PAO1, and hospital isolates of Acinetobacter baummannii were determined in quadruplicate by a modified microdilution broth method [64] with a final bacterial inoculum concentration of 5 × 10^5 CFU/mL utilised as the test organisms. Cation-adjusted Mueller Hinton (MH) broth was innoclated overnight with a single colony of the tested microorganisms, subsequently grown for 16–24 h with shaking at 225 rpm, and further diluted in the same broth to a final concentration of 5 × 10^5 CFU/mL. The bacterial suspension was added to sterile U-bottomed 96-well plates, and the peptides and control antibiotics to be tested were dissolved in sterile distilled water and serially diluted in the wells. The MICs were recorded as the lowest peptide concentration that inhibited growth after incubation for 18 h [65]. […]

[4] = test system: human red blood cells; test: Haemolytic activity; assay type: cell-based; settings: human RBC, CTAB control
Description: as §1

Molecule | haemolysis of sheep erythrocytes ([1]; 16 μg/mL) [%] | haemolysis of sheep erythrocytes ([1]; 24 μg/mL) [%] | Haemolytic activity (Minus PBS/average positive*100) ([1]; 1x MIC, mean) | Haemolytic activity (Minus PBS/average positive*100) ([1]; 1x MIC, replicate 1) | Haemolytic activity (Minus PBS/average positive*100) ([1]; 1x MIC, replicate 2) | Haemolytic activity (Minus PBS/average positive*100) ([1]; 1x MIC, replicate 3) | Haemolytic activity (Minus PBS/average positive*100) ([1]; 1x MIC, replicate 4) | Haemolytic activity (Minus PBS/average positive*100) ([1]; 2x MIC, mean) | Haemolytic activity (Minus PBS/average positive*100) ([1]; 2x MIC, replicate 1) | Haemolytic activity (Minus PBS/average positive*100) ([1]; 2x MIC, replicate 2) | Haemolytic activity (Minus PBS/average positive*100) ([1]; 2x MIC, replicate 3) | Haemolytic activity (Minus PBS/average positive*100) ([1]; 2x MIC, replicate 4) | Haemolytic activity (Minus PBS/average positive*100) ([1]; 3x MIC, mean) | Haemolytic activity (Minus PBS/average positive*100) ([1]; 3x MIC, replicate 1) | Haemolytic activity (Minus PBS/average positive*100) ([1]; 3x MIC, replicate 2) | Haemolytic activity (Minus PBS/average positive*100) ([1]; 3x MIC, replicate 3) | Haemolytic activity (Minus PBS/average positive*100) ([1]; 3x MIC, replicate 4) | MIC against S. aureus strains [2] [µg/mL] | MIC against drug resistant A. baumannii isolates [3] [µg/mL] | Haemolytic [4]
GIVAWFWRLAR [Lubelisin] | ~20 | ~30 | 12.8836 | 12.4097 | 12.5903 | 11.8682 | 14.6661 | 18.8177 | 17.1029 | 22.6986 | 19.9007 | 15.5686 | 33.7319 | 34.2509 | 33.1679 | 33.7094 | 33.7996 | 8 | 128 | 
CCCCCCCCCCCCCCCC[N+](C)(C)C.[Br-] [CTAB] |  |  |  |  |  |  |  |  |  |  |  |  |  |  |  |  |  |  |  | 100

Reference: article PMC8034185, “The rumen eukaryotome is a source of novel antimicrobial peptides with therapeutic potential” (BMC Microbiology, 2021)
